We go through two compounds from patent publication US12409174B2, “Combination of zibotentan and dapagliflozin for the treatment of endothelin related diseases” (priority 2020, dated 2025).

The test system of series [1] is patients with CKD with and without type 2 diabetes. Particulars: dapagliflozin 10 mg. As for the experimental part: The effect of dapagliflozin on albuminuria was investigated in patients with CKD with and without type 2 diabetes. In this analysis from the Phase 3 DAPA CKD trial, the efficacy of dapagliflozin was assessed to determine whether treatment with dapagliflozin reduces the level of albuminuria in patients with CKD.
In the trial, 4304 patients with estimated glomerular filtration rate 25-75 mL/min/1·73 m2 and urinary UACR 200-5000 mg/g were randomized to dapagliflozin (10 mg) or placebo. Change in albuminuria was assessed as the mean change in log-transformed UACR from baseline to end of study. Regression in UACR stage, defined as a transition from macroalbuminuria (≥300 mg/g) to micro- or normoalbuminuria (<300 mg/g), and progression in UACR stage, defined as a transition from <3000 mg/g to ≥3000 mg/g, were additional endpoints.

Series [2] in a line: Zibotentan blood concentrations, Experiment 1. Format: in vivo, male Wistar rats. Particulars: male, Wistar, rat, whole blood, oral, Exp 1; for concentration at 4 h: 4 hr post first dose. As for the experimental part:
(§1) In the first experiment (Experiment 1), the effect of zibotentan on haematocrit (Hct) concentration was determined when zibotentan was administered peroral (p.o) QD for 14 days. […] Animals were weighed daily prior to dosing throughout the experiment. Blood samples (20 μL) for bioanalysis were taken at 4 and 24 hr after the first dose via the tail vein from conscious animals and 24 hr after the last dose via retroorbital route from anesthetized animals. Blood samples were collected via tail vein (100 μL) for Hct concentration and haemoglobin (Hb) measurements, on day 7 and on day 14, 1-2 hr after dosing. Twenty-four hour urine was collected for the measurement of urinary glucose, urine volume and electrolytes between doses nine and ten. Animals were terminated 24 hr after the last dose. On the day of termination, animals were anesthetized using 5% isoflurane, and blood was collected via the retroorbital route (in heparin-coated microvette, Sarsted) and centrifuged at 3,500 rpm at 4° C. for 10 minutes, plasma was collected and stored at −80° C. degrees prior to analysis. Animals were then euthanized by the removal of the heart. Both the heart and the kidneys were extracted and weighed. From the right kidney, a 4 mm thick slice of tissue was collected and fixed in 4% formaldehyde for subsequent histological analysis and a piece of cortical kidney tissue and heart tissue was collected for gene expression analysis.
A volume of 20 μL whole blood was precipitated with 150 μL acetonitrile containing internal standard and quickly vortexed, followed by a 20 min centrifugation at 3220 g and 4° C. […] Zibotentan samples were further diluted twice and three times at a 1:10 ratio with 33% acetonitrile, to ensure all diluted samples were detectible within the calibration range.
Sample concentrations were determined against matrix-spiked calibration standards over a range of 0.010 μM-10.0 μM for dapagliflozin and 0.75 μM-376 μM for zibotentan, applying weighted linear regression (1/X^2) using Waters TargetLynx software version XS V4.2 SCN986. […] Analytical bias was <15% over the concentration range for both analytes.
Separation was achieved using the following elution gradient: 0 min to 1.5 min, 4% B ramping up to 95% B; 1.5 min to 2.3 min, kept at 95% B; 2.3 min to 2.4 min, 95% B to 4% B and kept at 4% B until 2.7 min. The flow rate was 0.7 mL/min.

The test system of series [3] is male Wistar rats on 4% salt diet. The experiment in a line: Effect of zibotentan on Hb, Experiment 1. Format: in vivo. Particulars: Exp 1. As for the experimental part: as §1
(§2) For Hct and Hb analysis, 100 μl of blood from rat's tail vein was collected and measured using CG8 cartridges analysed with an iSTAT instrument (Abbott Point of Care Inc, Abbot Park, IL, USA).
(§3) Significance was set at p<0.05.

The test system is the same in series [4]. The experiment in a line: Effect of zibotentan on urinary volume and Na, K, urea, creatinine, glucose in the urine, Experiment 1. Format: in vivo. Particulars: Exp 1; for Urine Creatine / Urine Glucose / Urine K / Urine Na / Urine Urea / Urine volume: 24 hr urine between doses nine and ten. As for the experimental part:
as §1
Plasma and Urine Albumin, Creatinine, Glucose, Urea, Potassium and Sodium levels were analyzed using an ABX Pentra 400 instrument (Horiba Medical, Irvine, California, USA) according to the manufacturers protocol.
as §3

For series [5] the test system is unchanged. The experiment in a line: Effect of zibotentan on haematocrit (Hct) concentration, Experiment 1. Format: in vivo. Particulars: Exp 1; for Hct concentration compared to vehicle: FIG. 4. As for the experimental part:
The effect of dapagliflozin and zibotentan on haematocrit (Hct) concentration in male Wistar rats on 4% salt diet was investigated.
as §1, §2, §3

The structures appear in SMILES notation. Read-outs that look alike come from different tables or passages of the source.

Regarding `CCOc1ccc(Cc2cc([C@@H]3O[C@H](CO)[C@@H](O)[C@H](O)[C@H]3O)ccc2Cl)cc1` [Dapa, (1S)-1,5-anhydro-1-{4-chloro-3-[(4-ethoxyphenyl)methyl]phenyl}-D-glucitol], in series [1] (3820 patients with UACR<3000 mg/g at baseline, 95% CI 0.32-0.52), the “Progression in UACR stage, hazard ratio” value worked out at 0.41. For the same compound, the “Regression in UACR stage, hazard ratio” value in series [1] (3860 patients with UACR≥300 mg/g at baseline, 95% CI 1.60-2.05) was determined as 1.81. In addition, the “UACR reduction compared to placebo” value came out at 29.3% in series [1] (CKD patients with and without type 2 diabetes, baseline to end of study, 95% CI 25.2-33.1%); 35.1% in series [1] (CKD patients with type 2 diabetes, 95% CI 30.6-39.4%); 14.8% in series [1] (CKD patients without type 2 diabetes, 95% CI 5.9-22.9%).

`COc1nc(C)cnc1NS(=O)(=O)c1cccnc1-c1ccc(-c2nnco2)cc1` [Zibo, N-(3-methoxy-5-methylpyrazin-2-yl)-2-[4-(1,3,4-oxadiazol-2-yl)phenyl]pyridine-3-sulfonamide]: the concentration at 24 h was 7.39 ± 10.4 µM in series [2] (30 mg/kg, Zibo 30 mg/kg p.o. QD 14 days, 24 hr post last dose); 4.68 ± 3.93 µM in series [2] (30 mg/kg, Zibo 30 mg/kg p.o. QD, 24 hr post first dose); 39 ± 32.4 µM in series [2] (100 mg/kg, Zibo 100 mg/kg p.o. QD 14 days, 24 hr post last dose); 39.1 ± 38.1 µM in series [2] (100 mg/kg, Zibo 100 mg/kg p.o. QD, 24 hr post first dose); 249 ± 193 µM in series [2] (300 mg/kg, Zibo 300 mg/kg p.o. QD 14 days, 24 hr post last dose); 176 ± 108 µM in series [2] (300 mg/kg, Zibo 300 mg/kg p.o. QD, 24 hr post first dose). Further, the concentration at 4 h in series [2] (30 mg/kg, Zibo 30 mg/kg p.o. QD) was determined as 53.8 ± 17.4 µM; in series [2] (100 mg/kg, Zibo 100 mg/kg p.o. QD) it was 134 ± 43.8 µM; in series [2] (300 mg/kg, Zibo 300 mg/kg p.o. QD), 247 ± 46 µM. For the same compound, the “Day 7 Hb” value in series [3] (Zibo 30 mg/kg p.o. QD) turned out to be 146.4 g/L; in series [3] (Zibo 100 mg/kg p.o. QD), 141.5 g/L; in series [3] (Zibo 300 mg/kg p.o. QD) it was 143.2 g/L. In addition, the “Day 14 Hb” value in series [3] (Zibo 30 mg/kg p.o. QD) is on record as 156.8 g/L; in series [3] (Zibo 100 mg/kg p.o. QD) it was 148.5 g/L; in series [3] (Zibo 300 mg/kg p.o. QD), 150.3 g/L. Further, the “Hb compared to vehicle” value in series [3] (zibotentan 30, 100 and 300 mg/kg, day 7) is on record as “significant decrease”; in series [3] (zibotentan 100 and 300 mg/kg, day 14), “significant decrease”. Moreover, the “Urine Creatine” value is 88.8 ± 3.3 µmol in series [4] (Zibo 30 mg/kg p.o. QD), 82.8 ± 2.5 µmol in series [4] (Zibo 100 mg/kg p.o. QD) and 82.9 ± 3.3 µmol in series [4] (Zibo 300 mg/kg p.o. QD). Also, the “Urine Glucose” value in series [4] (Zibo 30 mg/kg p.o. QD) was 0.01 ± 0.0 mmol; in series [4] (Zibo 100 mg/kg p.o. QD) it was 0.02 ± 0.0 mmol; in series [4] (Zibo 300 mg/kg p.o. QD), 0.18 ± 0.1 mmol. The “Urine K” value in series [4] (Zibo 30 mg/kg p.o. QD) is on record as 1.57 ± 0.05 mmol; in series [4] (Zibo 100 mg/kg p.o. QD), 1.52 ± 0.06 mmol; in series [4] (Zibo 300 mg/kg p.o. QD), 1.44 ± 0.03 mmol. Also, the “Urine Na” value in series [4] (Zibo 30 mg/kg p.o. QD) was 14.05 ± 0.95 mmol; in series [4] (Zibo 100 mg/kg p.o. QD), 13.01 ± 1.07 mmol; in series [4] (Zibo 300 mg/kg p.o. QD), 13.76 ± 0.76 mmol. Besides, the “Urine Urea” value is reported as 6.19 ± 1.71 mmol in series [4] (Zibo 30 mg/kg p.o. QD), 4.04 ± 0.39 mmol in series [4] (Zibo 100 mg/kg p.o. QD) and 4.60 ± 0.19 mmol in series [4] (Zibo 300 mg/kg p.o. QD). For the same compound, the results for the Urine volume in series [4] (Zibo 30 mg/kg p.o. QD), in series [4] (Zibo 100 mg/kg p.o. QD) and in series [4] (Zibo 300 mg/kg p.o. QD) were 28.19 ± 2.99 mL, 23.88 ± 2.02 mL and 29.09 ± 2.74 mL, respectively. The “Level of urinary volume, Na, K, urea, creatinine and glucose compared to vehicle” value in series [4] (different doses of zibotentan) was “no change”. For the same compound, in series [5] (zibotentan 30 mg/kg p.o. QD, day 14), the “Hct concentration compared to vehicle (significant decrease?)” value is given as “not for the lower dose”. The “Hct concentration compared to vehicle” value is “significant (p<0.05) decrease” in series [5] (zibotentan 30, 100 and 300 mg/kg p.o. QD, day 7); “significant (p<0.05) decrease” in series [5] (zibotentan 100 and 300 mg/kg p.o. QD, day 14).
